Results on 14 molecules are retold here after patent US10005774B2, “Syk inhibitors” (Gilead Sciences, Inc., priority 2013, dated 2018).

SMILES strings stand for the structures.

In one test the target is Syk (Homo sapiens, UniProt P43405). Kind of test: High Throughput Syk Biochemical Assay (KinEASE TR-FRET). To be noted: TABLE D, 20 μM ATP, 1 μM biotinylated peptide, 0.015 nM Syk, 30 min at room temperature, read-out: IC50. The essentials: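 Two-step endpoint TR-FRET (KinEASE) measured Syk phosphorylation of an XL665-labelled peptide, detected with europium anti-phosphotyrosine antibody. Compounds were serially diluted in DMSO.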
The IC50 is the concentration that gives 50% inhibition. On to `COc1ccc(-c2cc3nc(C)n(C(C)C)c3c(O[C@H](C)[C@H]3CNC(=O)C3)n2)cc1OC` [(R)-4-((R)-1-(6-(3,4-dimethoxyphenyl)-3-isopropyl-2-methyl-3H-imidazo[4,5-c]pyridin-4-yloxy)ethyl)pyrrolidin-2-one], for which the IC50 is 317 nM.
On the same count and under the same terms, the result for `COc1ccc(-c2cc3ncn(C(C)C)c3c(O[C@H](C)[C@H]3CNC(=O)C3)n2)cc1OC` [(R)-4-((R)-1-(6-(3,4-dimethoxyphenyl)-3-isopropyl-3H-imidazo[4,5-c]pyridin-4-yloxy)ethyl)pyrrolidin-2-one] reads 3.39 nM.
On the same count and under the same terms, as for `COc1ccc(-c2cc3ncn(C)c3c(O[C@H](C)[C@H]3CNC(=O)C3)n2)cc1OC` [(R)-4-((R)-1-(6-(3,4-dimethoxyphenyl)-3-methyl-3H-imidazo[4,5-c]pyridin-4-yloxy)ethyl)pyrrolidin-2-one], the figure is 5.19 nM; as for `COc1ccc(-c2cc3nc[nH]c3c(O[C@H](C)[C@H]3CNC(=O)C3)n2)cc1OC` [(R)-4-((R)-1-(6-(3,4-dimethoxyphenyl)-3H-imidazo[4,5-c]pyridin-4-yloxy)ethyl)pyrrolidin-2-one], 513 nM; as for `COc1ccc(-c2cc3ncn(C)c3c(O[C@H](C)[C@H]3CNC(=O)C3)n2)cc1F` [(R)-4-((R)-1-(6-(3-fluoro-4-methoxyphenyl)-3-methyl-3H-imidazo[4,5-c]pyridin-4-yloxy)ethyl)pyrrolidin-2-one], 17.2 nM.
On the same count and under the same terms, the result for `CC(=O)N1CCN(c2ccc(-c3cc4ncn(C)c4c(O[C@H](C)[C@H]4CNC(=O)C4)n3)cc2)CC1` [(R)-4-((R)-1-(6-(4-(4-acetylpiperazin-1-yl)phenyl)-3-methyl-3H-imidazo[4,5-c]pyridin-4-yloxy)ethyl)pyrrolidin-2-one] reads 3.14 nM; that for `Cc1cc(-c2cc3ncn(C)c3c(O[C@H](C)[C@H]3CNC(=O)C3)n2)ccc1N(C)C` [(R)-4-((R)-1-(6-(4-(dimethylamino)-3-methylphenyl)-3-methyl-3H-imidazo[4,5-c]pyridin-4-yloxy)ethyl)pyrrolidin-2-one], 5.31 nM.
For the molecule `COc1cc(-c2cc3ncn(C)c3c(O[C@H](C)[C@H]3CNC(=O)C3)n2)ccc1F` [(R)-4-((R)-1-(6-(4-fluoro-3-methoxyphenyl)-3-methyl-3H-imidazo[4,5-c]pyridin-4-yloxy)ethyl)pyrrolidin-2-one], the 50% inhibitory concentration (IC50) amounted to 39.5 nM.
Take `COc1ccc(-c2cc3ncn(C)c3c(O[C@H](C)[C@H]3CNC(=O)C3)n2)nc1OC` [(R)-4-((R)-1-(6-(5,6-dimethoxypyridin-2-yl)-3-methyl-3H-imidazo[4,5-c]pyridin-4-yloxy)ethyl)pyrrolidin-2-one]: the IC50 was 34 nM.
Still for that read-out and setting: as for `COc1ccc(-c2cc3ncn(C)c3c(O[C@H](C)[C@H]3CNC(=O)C3)n2)cn1` [(R)-4-((R)-1-(6-(6-methoxypyridin-3-yl)-3-methyl-3H-imidazo[4,5-c]pyridin-4-yloxy)ethyl)pyrrolidin-2-one], the figure is 71.7 nM; as for `C[C@@H](Oc1nc(-c2cccc3scnc23)cc2ncn(C)c12)[C@H]1CNC(=O)C1` [(R)-4-((R)-1-(6-(benzo[d]thiazol-4-yl)-3-methyl-3H-imidazo[4,5-c]pyridin-4-yloxy)ethyl)pyrrolidin-2-one], 184 nM.
`C[C@@H](Oc1nc(C2=CCCCC2)cc2ncn(C)c12)[C@H]1CNC(=O)C1` [(R)-4-((R)-1-(6-cyclohexenyl-3-methyl-3H-imidazo[4,5-c]pyridin-4-yloxy)ethyl)pyrrolidin-2-one]: the IC50 amounted to 124 nM.

The same test, now with this note: table 'ALL NEW COMPOUNDS IN 2014', 20 μM ATP, 1 μM biotinylated peptide, 0.015 nM Syk, 30 min at room temperature, read-out: Syk IC50.
Take `Cc1nc(-c2cc(O[C@H](C)[C@H]3CNC(=O)C3)c3c(c2)ncn3C2CC2)cn1C` [(R)-4-((R)-1-((1-cyclopropyl-5-(1,2-dimethyl-1H-imidazol-4-yl)-1H-benzo[d]imidazol-7-yl)oxy)ethyl)pyrrolidin-2-one]: the IC50 came out at 6.07 nM.
Still for that read-out and setting: the result for `Cc1cc(-c2cc(O[C@H](C)[C@H]3CNC(=O)C3)c3c(c2)ncn3C2CC2)nn1C` [(R)-4-((R)-1-((1-cyclopropyl-5-(1,5-dimethyl-1H-pyrazol-3-yl)-1H-benzo[d]imidazol-7-yl)oxy)ethyl)pyrrolidin-2-one] reads 2.15 nM.
